Source: US20240374631A1, “A COMPOSITION FOR IMPROVING GUT MICROBIOTA, BEHAVIOURAL PATTERN, ALPHA-SYNUCLEIN LEVELS, SLEEP PATTERN AND/OR SERUM MELATONIN” (GN Corporation Co Ltd, priority 2021, published 2024)

Tested on: gut microbiota
Experiment: Gut microbiome analysis (16S rRNA sequencing of fecal samples) in STAM model of NASH
Format: in vivo, C57BL/6J mice
Conditions: pre
Description: The study is reported in accordance with Animal Research: Reporting of In Vivo Experiments (ARRIVE) guidelines. C57BL/6J mice were obtained from Japan SLC, Inc. (Japan). All animals used in this study were cared for under the following guidelines: Act on Welfare and Management of Animals (Ministry of the Environment, Japan, Act No. 105 of Oct. 1, 1973), standards relating to the care and management of laboratory animals and relief of pain (Notice No. 88 of the Ministry of the Environment, Japan, Apr. 28, 2006) and the guidelines for proper conduct of animal experiments (Science Council of Japan, Jun. 1, 2006). Protocol approvals were obtained from SMC Laboratories, Japan's IACUC (Study reference no: […] Mice were maintained in a specific pathogen-free (SPF) facility under controlled conditions of temperature (23±3° C.), humidity (50±20%), lighting (12-hour artificial light and dark cycles; light from 8:00 to 20:00) and air exchange. The STAM model of NASH was induced as previously described [D10]. Mice were given a single subcutaneous injection of 200 μg streptozotocin (STZ, Sigma-Aldrich, USA) solution 2 days after birth and fed with a high-fat diet (HFD, 57 kcal % fat, Cat #HFD32, CLEA Japan, Inc., Japan) from 4-9 weeks of age. All mice develop liver steatosis and diabetes and at […] mice had established steatohepatitis, histologically. Studygroups: There were five study groups, described below. Eight mice were included in each study group. Eight NASH mice were orally administered vehicle supplemented with AFO-202 Beta Glucan at a dose of 1 mg/kg in a volume of 5 mL/kg once daily from 6 to 9 weeks of age. Eight NASH mice were orally administered vehicle supplemented with Telmisartan at a dose of 10 mg/kg once daily from 6 to 9 weeks of age. Frequency: Fecal samples were collected at the 6 weeks of age (before administration) and 9 weeks of age (before sacrifice). Procedure: At 6 weeks of age, fecal samples were collected from each mouse by clean catch method. […] A sterile petri dish was placed on the bench. Gently massage the abdomen, position the bottom of mouse over a fresh petri dish, and collect 1-2 fecal pellets. At sacrifice, fecal samples were aseptically collected from cecum. The tubes with feces were placed on ice immediately. These tubes were snap frozen in liquid nitrogen and stored at -80° C. for shipping. In this analysis, the 16S rRNA sequence data acquired by the next-generation sequencer from the fecal […] was used to perform community analysis using the QIIME2 program for microbial community analysis. The raw read data in FASTQ format output from the next-generation sequencer was trimmed to remove adapter sequences and low QV regions that may be included in the data. Cutadapt was used to remove adapter sequences from DNA sequencing reads. Trimmomatic was used as read trimming tool for Illumina NGS data. The adapter sequence was trimmed using the adapter trimming program “cutadapt” if the Trimming of the region at the end of the read sequence overlapped the corresponding sequence by at least one base (mismatch tolerance: 20%). When reads containing N were present in at least one of Read1 and Read2, both Read1 and Read2 were removed. Trimming of low QV regions was performed on the read data after processing using the QV trimming program “Trimmomatic” under the following conditions. The window of 20 bases is slid from the 5' side, and the area where the average QV is less than 20 is trimmed. After trimming, only the reads with more than 50 bases remaining in both Read1 and Read2 were taken as output. The microbial community analysis based on 16S rRNA sequence was performed on the sequence data trimmed in the previous section using the microbial community analysis program “QIIME2”. The annotation program “sklearn” included in QIIME2 is used to annotate the ASV (OTU) sequences. […]

`CCCc1nc2c(C)cc(-c3nc4ccccc4n3C)cc2n1Cc1ccc(-c2ccccc2C(=O)O)cc1` [Telmisartan] was tested, and the “Abundance S24-7/—/—” value (line r81) was 327, the “Abundance Lachnospiraceae/[Ruminococcus]/gnavus” value (line r83) was 120 and the “Abundance Ruminococcaceae/Oscillospira/—” value (line r84) was 284. The “Abundance Ruminococcaceae/Anaerotruncus/—” value (line r85) was 638, the “Abundance Alcaligenaceae/Sutterella/—” value (line r86) was 191 and the “Abundance S24-7/—/—” value (line r87) was 394. For the same molecule, the “Abundance F16/—/—” value (line r88) was 329, the “Abundance Other/Other/Other” value (line r90) was 276 and the “Abundance Lachnospiraceae/[Ruminococcus]/gnavus” value (line r91) was 168. For the same molecule, the “Abundance S24-7/—/—” value (line r92) was 476, the “Abundance Rikenellaceae/—/—” value (line r93) was 259 and the “Abundance Lachnospiraceae/[Ruminococcus]/gnavus” value (line r94) was 62. For the same molecule, the “Abundance Lachnospiraceae/—/—” value (line r95) was 250, the “Abundance Clostridiaceae/Other/Other” value (line r96) was 693 and the “Abundance Lachnospiraceae/—/—” value (line r97) was 78. For the same molecule, the “Abundance Ruminococcaceae/Oscillospira/—” value (line r98) was 160, the “Abundance Enterococcaceae/Enterococcus/—” value (line r99) was 32 and the “Abundance Rikenellaceae/—/—” value (line r100) was 239. For the same molecule, the “Abundance S24-7/—/—” value (line r101) was 208, the “Abundance Lactobacillaceae/Lactobacillus/reuteri” value (line r102) was 0 and the “Abundance Bacteroidaceae/Bacteroides/acidifaciens” value (line r103) was 161. For the same molecule, the “Abundance Ruminococcaceae/Oscillospira/—” value (line r104) was 202, the “Abundance Enterobacteriaceae/Escherichia/coli” value (line r105) was 0 and the “Abundance Ruminococcaceae/Oscillospira/—” value (line r106) was 152. The “Abundance —/—/—” value (line r107) was 228, the “Abundance S24-7/—/—” value (line r108) was 157 and the “Abundance —/—/—” value (line r109) was 988. The “Abundance Other/Other/Other” value (line r110) was 463, the “Abundance Lachnospiraceae/—/—” value (line r111) was 46 and the “Abundance Lachnospiraceae/[Ruminococcus]/gnavus” value (line r112) was 148. For the same molecule, the “Abundance Lachnospiraceae/—/—” value (line r113) was 390, the “Abundance Enterobacteriaceae/Klebsiella/Other” value (line r114) was 0 and the “Abundance Lachnospiraceae/—/—” value (line r115) was 76. For the same molecule, the “Abundance Enterobacteriaceae/Klebsiella/—” value (line r116) was 0, the “Abundance —/—/—” value (line r117) was 0 and the “Abundance Lactobacillaceae/Lactobacillus/—” value (line r118) was 4. For the same molecule, the “Abundance Other/Other/Other” value (line r119) was 57, the “Abundance —/—/—” value (line r120) was 209 and the “Abundance Erysipclotrichaceae/Allobaculum/—” value (line r121) was 203. For the same molecule, the “Abundance —/—/—” value (line r122) was 131, the “Abundance Lachnospiraceae/—/—” value (line r123) was 207 and the “Abundance —/—/—” value (line r124) was 362. For the same molecule, the “Abundance Other/Other/Other” value (line r125) was 58, the “Abundance Lactobacillaceae/Lactobacillus/reuteri” value (line r126) was 0 and the “Abundance Ruminococcaceae/Oscillospira/—” value (line r127) was 158. The “Abundance Lachnospiraceae/—/—” value (line r128) was 50, the “Abundance S24-7/—/—” value (line r130) was 64 and the “Abundance Lachnospiraceae/—/—” value (line r131) was 315. For the same molecule, the “Abundance S24-7/—/—” value (line r132) was 104, the “Abundance S24-7/—/—” value (line r133) was 60 and the “Abundance Lachnospiraceae/—/—” value (line r134) was 19. The “Abundance —/—/—” value (line r135) was 28, the “Abundance Coriobacteriaceae/Adlercreutzia/—” value (line r136) was 110 and the “Abundance —/—/—” value (line r137) was 200. For the same molecule, the “Abundance Clostidiaceae/Other/Other” value (line r138) was 0, the “Abundance Turicibacteraceae/Turicibacter/—” value (line r139) was 125 and the “Abundance Ruminococcaceae/Ruminococcus/—” value (line r140) was 193. The “Abundance Ruminococcaceae/Oscillospira/—” value (line r141) was 215, the “Abundance Dehalobacteriaceae/Dehalobacterium/—” value (line r142) was 43 and the “Abundance Staphylococcaceae/Staphylococcus/Other” value (line r143) was 110. The “Abundance Rikenellaceae/—/—” value (line r144) was 61, the “Abundance Lachnospiraceae/—/—” value (line r145) was 87 and the “Abundance —/—/—” value (line r146) was 60. The “Abundance Staphylococcaceae/Staphylococcus/sciuri” value (line r147) was 34, the “Abundance —/—/—” value (line r148) was 103 and the “Abundance Ruminococcaceae/Ruminococcus/—” value (line r149) was 157. For the same molecule, the “Abundance Coriobacteriaceae/Adlercreutzia/—” value (line r150) was 101, the “Abundance Ruminococcaceae/Oscillospira/—” value (line r151) was 61 and the “Abundance Lachnospiraceae/Clostridium/Other” value (line r152) was 85. For the same molecule, the “Abundance Lachnospiraceae/Coprococcus/—” value (line r153) was 151, the “Abundance Desulfovibrionaceae/—/—” value (line r154) was 50 and the “Abundance —/—/—” value (line r155) was 94. The “Abundance Lachnospiraceae/—/—” value (line r156) was 0, the “Abundance Dehalobacteriaceae/Dehalobacterium/—” value (line r157) was 41 and the “Abundance Coriobacteriaceae/Adlercreutzia/—” value (line r158) was 90. The “Abundance Lachnospiraceae/—/—” value (line r159) was 37, the “Abundance Lachnospiraceae/—/—” value (line r160) was 168 and the “Abundance Ruminococcaceae/Oscillospira/—” value (line r161) was 0. The “Abundance Streptococcaceae/Streptococcus/—” value (line r163) was 0, the “Abundance Lachnospiraceae/[Ruminococcus]/gnavus” value (line r164) was 83 and the “Abundance Lachnospiraceae/—/—” value (line r165) was 102. The “Abundance Lachnospiraceae/—/—” value (line r166) was 231, the “Abundance Coriobacteriaceae/Adlercreutzia/—” value (line r167) was 74 and the “Abundance Erysipelotrichaceae/Clostridium/cocleatum” value (line r169) was 0. The “Abundance S24-7/—/—” value (line r170) was 53, the “Abundance Lachnospiraceae/—/—” value (line r171) was 27 and the “Abundance Bacteroidaceae/Bacteroides/—” value (line r172) was 55. The “Abundance Ruminococcaceae/Oscillospira/—” value (line r173) was 59, the “Abundance Ruminococcaceae/—/—” value (line r174) was 41 and the “Abundance Lachnospiraceae/Other/Other” value (line r175) was 52. The “Abundance Lachnospiraceae/Dorea/—” value (line r176) was 28, the “Abundance Lachnospiraceae/—/—” value (line r177) was 0 and the “Abundance S24-7/—/—” value (line r178) was 168. For the same molecule, the “Abundance Lachnospiraceae/—/—” value (line r179) was 92, the “Abundance Lactobacillaceae/Lactobaccilus/Other” value (line r180) was 0 and the “Abundance —/—/—” value (line r181) was 34. For the same molecule, the “Abundance Ruminococcaceae/Oscillospira/—” value (line r182) was 99, the “Abundance S24-7/—/—” value (line r183) was 55 and the “Abundance S24-7/—/—” value (line r184) was 67. The “Abundance [Mogibacteriaceae]/—/—” value (line r185) was 36, the “Abundance Peptococcaceae/—/—” value (line r186) was 43 and the “Abundance —/—/—” value (line r187) was 13. The “Abundance —/—/—” value (line r188) was 0 and the “Abundance S24-7/—/—” value (line r189) was 76.
